From patent US11304974B2, “Nanosystems comprising silver and antibiotics and their use for the treatment of bacterial infections” (priority 2017, dated 2022) come the findings set out here.

Experiment [1] deals with K. pneumoniae BLEE+. In words: Agar diffusion antibiogram (Example 2). The format is cell-based, Klebsiella pneumoniae. As to conditions: concentration 200 μg/ml. The protocol:
(§1) From the stock cultures, which were maintained at −80±5° C., revitalization of the strains (TSB, TSA and blood agar cultures, incubation at 37° C., 24 h) and preparation of working cultures (maintenance at 5° C.±3° C.) was carried out.
(§2) The study of microbial activity of the products was performed by the agar diffusion method (antibiograms). Preliminary experiments were performed to adjust the concentration of each strain to obtain a homogeneous field, and the appropriate culture medium (in this case, Mueller Hinton agar) was selected. Whenever possible, large Petri plates (diameter of 135 mm) were used, but when the halo was too large, several plates of 90 mm diameter were used to test all the products. […] Addition of 1-2 ml of the corresponding dilution to sterile Petri plates (depending on size) and then pouring Mueller Hinton agar, tempered to 45° C. Allowing the agar to solidify at room temperature and then practicing wells in which the products will be placed to be tested. • Preparing the test substances in the appropriate concentration (suspension of 1 mg/ml in sterile water and serial dilutions). Placing 50 μl of the chosen concentration in each well (a previous study was done to see which concentration provided the most appropriate halos in each strain). […] Then the inhibition halos observed in each well were measured and gathered in Table 4 below.
(In general: A growth-free zone around the sample is the usual read-out of agar diffusion tests.)

The test system of experiment [2] is K. pneumoniae ATCC 700603. Nature of the experiment: Agar diffusion antibiogram (Example 2). Format: cell-based, Klebsiella pneumoniae. As to conditions: concentration 200 μg/ml. As for the experimental part:
as §1, §2

Experiment [3] has as its system E. coli H24 BLEE+. Nature of the experiment: Agar diffusion antibiogram (Example 1). Format: cell-based, Escherichia coli. As to conditions: by order of Table 1 E. coli H24 BLEE+; concentration 50 μg/ml. The protocol:
as §1
(§3) The study of microbial activity of the products was performed by the agar diffusion method (antibiograms). Preliminary experiments were performed to adjust the concentration of each strain to obtain a homogeneous field, and select the appropriate culture medium (in this case, Mueller Hinton agar). Whenever possible, large Petri plates (135 mm diameter) were used, but when the halo was too large, several plates of 90 mm diameter were used to test all the products. […] Addition of 1-2 ml of the corresponding dilution to sterile Petri plates (depending on size) and then pouring Mueller Hinton agar, tempered to 45° C. Allowing the agar to solidify at room temperature and then practicing wells in which the products to be tested will be placed. • Preparing the test substances in the appropriate concentration (suspension of 1 mg/ml in sterile water and serial dilutions). Placing 50 μl of the chosen concentration in each well (a previous study was done to determine which concentration provided the most appropriate halos in each strain). As a positive control, Penicillin G (at the same concentration) was used. • Incubation of the plates at 37±1° C. for 24 hours. Then the inhibition halos observed in each well were measured and gathered in Table 2 below.

Experiment [4] deals with E. coli W207 BLEE+. Nature of the experiment: Agar diffusion antibiogram (Example 1). The format is cell-based, Escherichia coli. As to conditions: by order of Table 1 E. coli W207 BLEE+; concentration 50 μg/ml. The protocol: as §1, §3
Experiment [5] relates to E. coli not BLEE. Nature of the experiment: Agar diffusion antibiogram (Example 1). The format is cell-based, Escherichia coli. As to conditions: concentration 50 μg/ml. As for the experimental part: as §1, §3
The subject of experiment [6] is E. coli C93 BLEE+. Nature of the experiment: Agar diffusion antibiogram (Example 1). The format is cell-based, Escherichia coli. As to conditions: by order of Table 1 E. coli C93 BLEE+; concentration 50 μg/ml. The protocol: as §1, §3
Experiment [7] deals with E. coli ATCC 8739. Nature of the experiment: Agar diffusion antibiogram (Example 1). The format is cell-based, Escherichia coli. As to conditions: concentration 50 μg/ml. As for the experimental part:
as §1, §3

Experiment [8] has as its system C. freundii H44 BLEE+. In words: Agar diffusion antibiogram (Example 2). As to conditions: concentration 50 μg/ml. The format is cell-based, Citrobacter freundii. The protocol:
as §1, §2

For experiment [9], the system named is E. coli H24 BLEE+. In words: Agar diffusion antibiogram (Example 2). The format is cell-based, Escherichia coli. As to conditions: concentration 50 μg/ml. The protocol: as §1
(§4) The study of microbial activity of the products was performed by the agar diffusion method (antibiograms). Preliminary experiments were performed to adjust the concentration of each strain to obtain a homogeneous field, and the appropriate culture medium (in this case, Mueller Hinton agar) was selected. Whenever possible, large Petri plates (diameter of 135 mm) were used, but when the halo was too large, several plates of 90 mm diameter were used to test all the products. […] Addition of 1-2 ml of the corresponding dilution to sterile Petri plates (depending on size) and then pouring Mueller Hinton agar, tempered to 45° C. Allowing the agar to solidify at room temperature and then practicing wells in which the products will be placed to be tested. • Preparing the test substances in the appropriate concentration (suspension of 1 mg/ml in sterile water and serial dilutions). Placing 50 μl of the chosen concentration in each well (a previous study was done to see which concentration provided the most appropriate halos in each strain). As a positive control Penicillin G (at the same concentration) was used. • Incubation of the plates at […] for 24 hours. Then the inhibition halos observed in each well were measured and gathered in Table 4 below.

For experiment [10], the system named is E. coli W207 BLEE+. Nature of the experiment: Agar diffusion antibiogram (Example 2). Format: cell-based, Escherichia coli. As to conditions: concentration 50 μg/ml. The protocol: as §1, §4
For experiment [11], the system named is E. coli C93 BLEE+. Nature of the experiment: Agar diffusion antibiogram (Example 2). Format: cell-based, Escherichia coli. As to conditions: concentration 50 μg/ml. The protocol: as §1, §4
Experiment [12] relates to E. coli AC8 BLEE+. In words: Agar diffusion antibiogram (Example 2). The format is cell-based, Escherichia coli. As to conditions: concentration 50 μg/ml. As for the experimental part: as §1, §4
Experiment [13] relates to Ps. aeruginosa OPRD. In words: Agar diffusion antibiogram (Example 2). Format: cell-based, Pseudomonas aeruginosa. As to conditions: concentration 50 μg/ml. The protocol:
as §1, §4

Experiment [14] has as its system Ps. aeruginosa VIM2. In words: Agar diffusion antibiogram (Example 2). The format is cell-based, Pseudomonas aeruginosa. As to conditions: concentration 50 μg/ml. As for the experimental part: as §1, §4
In experiment [15] the test system is Ps. aeruginosa MEXR. Nature of the experiment: Agar diffusion antibiogram (Example 2). Format: cell-based, Pseudomonas aeruginosa. As to conditions: concentration 50 μg/ml. The protocol: as §1, §4
Experiment [16] has as its system Ps. aeruginosa PAO1. In words: Agar diffusion antibiogram (Example 2). Format: cell-based, Pseudomonas aeruginosa. As to conditions: concentration 50 μg/ml. As for the experimental part:
as §1, §4

The subject of experiment [17] is Ps. aeruginosa DACB. Nature of the experiment: Agar diffusion antibiogram (Example 2). The format is cell-based, Pseudomonas aeruginosa. As to conditions: concentration 50 μg/ml. As for the experimental part: as §1, §4
Experiment [18] concerns C. freundii H44 BLEE+. In words: Agar diffusion antibiogram (Example 1). The format is cell-based, Citrobacter freundii. As to conditions: by order of Table 1 C. freundii H44 BLEE+; concentration 50 μg/ml. As for the experimental part: as §1
as §3, with “As a positive control, Penicillin G (at the same concentration) was used. • Incubation of the plates at 37±1° C. for 24 hours.” left out

Experiment [19] relates to K. pneumoniae (BLEE+). Nature of the experiment: Agar diffusion antibiogram (Example 1). Format: cell-based, Klebsiella pneumoniae. As to conditions: by order of Table 1 K. pneumoniae BLEE+ clinical isolate; concentration 200 μg/ml. As for the experimental part:
as §1
as §3, with “As a positive control, Penicillin G (at the same concentration) was used. • Incubation of the plates at 37±1° C. for 24 hours.” left out

Experiment [20] has as its system K. pneumoniae ATCC 700603. In words: Agar diffusion antibiogram (Example 1). The format is cell-based, Klebsiella pneumoniae. As to conditions: by order of Table 1 K. pneumoniae ATCC 700603; concentration 200 μg/ml. The protocol:
as §1
as §3, with “As a positive control, Penicillin G (at the same concentration) was used. • Incubation of the plates at 37±1° C. for 24 hours.” left out

Experiment [21] relates to Ps. aeruginosa OPRD. In words: Agar diffusion antibiogram (Example 1). Format: cell-based, Pseudomonas aeruginosa. As to conditions: by order of Table 1 Ps. aeruginosa OPRD; concentration 50 μg/ml. As for the experimental part: as §1, §3
In experiment [22] the test system is Ps. aeruginosa VIM2. Nature of the experiment: Agar diffusion antibiogram (Example 1). Format: cell-based, Pseudomonas aeruginosa. As to conditions: by order of Table 1 Ps. aeruginosa VIM2; concentration 50 μg/ml. The protocol:
as §1, §3

Experiment [23] deals with Ps. aeruginosa MEXR. In words: Agar diffusion antibiogram (Example 1). Format: cell-based, Pseudomonas aeruginosa. As to conditions: by order of Table 1 Ps. aeruginosa MEXR; concentration 50 μg/ml. As for the experimental part:
as §1, §3

Experiment [24] relates to Ps. aeruginosa PAO1. Nature of the experiment: Agar diffusion antibiogram (Example 1). Format: cell-based, Pseudomonas aeruginosa. As to conditions: by order of Table 1 Ps. aeruginosa PAO1; concentration 50 μg/ml. As for the experimental part: as §1, §3

Consider `CC1(C)S[C@@H]2[C@H](NC(=O)Cc3ccccc3)C(=O)N2[C@H]1C(=O)O` [PG, penicillin G], for which the Inhibition halos in experiment [1] is <1 mm; in [2], <1 mm; in experiment [3] it was <1 mm; in experiment [4], <1 mm; in [5] it was 21 mm; in experiment [6], <1 mm. Besides, the Inhibition halos in experiment [7] is recorded as 21 mm; in experiment [8], <1 mm; in [9] it was <1 mm; in experiment [10] it was <1 mm; in [11], <1 mm; in experiment [12], <1 mm. Further, the Inhibition halos in experiment [13] is <1 mm; in experiment [14], <1 mm; in experiment [15] it was <1 mm; in experiment [16] it was <1 mm; in experiment [17], 9 mm; in [18] it was <1 mm. The Inhibition halos in experiment [19], in experiment [20], in experiment [21], in experiment [22], in experiment [23] and in [24] was <1 mm throughout.
